Assay results from US20210198277A1, “AMINE-SUBSTITUTED ARYL OR HETEROARYL COMPOUNDS” (Epizyme, Inc., priority 2016, published 2021).
Where a name gives a salt, the structure may show the parent alone.

What was measured:
human EHMT2 913-1193 = biological target: T1, human EHMT2 913-1193 (Homo sapiens, UniProt Q96KQ7); assay: EHMT2 enzyme assay on histone peptide substrate (EHMT2 PEP); assay type: biochemical; conditions: Table II; read-out: EHMT2 PEP (IC50 μM)
T1 construct: recombinant purified human EHMT2 913-1193, Viva; purchased Viva
T1 sequence (Q96KQ7 913-1193): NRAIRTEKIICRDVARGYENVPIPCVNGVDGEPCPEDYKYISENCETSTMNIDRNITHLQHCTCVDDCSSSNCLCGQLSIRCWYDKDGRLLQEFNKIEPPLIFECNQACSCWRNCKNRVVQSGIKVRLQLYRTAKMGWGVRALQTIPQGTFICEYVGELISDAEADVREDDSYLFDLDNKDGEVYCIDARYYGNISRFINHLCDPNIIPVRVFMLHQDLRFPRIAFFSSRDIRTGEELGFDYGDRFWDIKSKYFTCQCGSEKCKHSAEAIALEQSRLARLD
Method in brief: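 Radiometric methyltransferase read-out: ^3H-methyl transfer from ^3H-SAM onto biotinylated histone peptide, captured on streptavidin Flashplates after 60 min reaction at room temperature. Enzyme 0.031 nM, preincubated 30 min with inhibitor; buffer 20 mM Bicine pH 7.5 with 1 mM TCEP; top compound concentration 50 μM final, 2% DMSO.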

EHMT1 = biological target: T2, EHMT1 (Homo sapiens, UniProt Q9H9B1); assay: EHMT1 enzyme assay on peptide substrate (EHMT1 PEP); assay type: biochemical; conditions: Table II; read-out: EHMT1 PEP (IC50 μM)
T2 sequence (Q9H9B1 1-1298): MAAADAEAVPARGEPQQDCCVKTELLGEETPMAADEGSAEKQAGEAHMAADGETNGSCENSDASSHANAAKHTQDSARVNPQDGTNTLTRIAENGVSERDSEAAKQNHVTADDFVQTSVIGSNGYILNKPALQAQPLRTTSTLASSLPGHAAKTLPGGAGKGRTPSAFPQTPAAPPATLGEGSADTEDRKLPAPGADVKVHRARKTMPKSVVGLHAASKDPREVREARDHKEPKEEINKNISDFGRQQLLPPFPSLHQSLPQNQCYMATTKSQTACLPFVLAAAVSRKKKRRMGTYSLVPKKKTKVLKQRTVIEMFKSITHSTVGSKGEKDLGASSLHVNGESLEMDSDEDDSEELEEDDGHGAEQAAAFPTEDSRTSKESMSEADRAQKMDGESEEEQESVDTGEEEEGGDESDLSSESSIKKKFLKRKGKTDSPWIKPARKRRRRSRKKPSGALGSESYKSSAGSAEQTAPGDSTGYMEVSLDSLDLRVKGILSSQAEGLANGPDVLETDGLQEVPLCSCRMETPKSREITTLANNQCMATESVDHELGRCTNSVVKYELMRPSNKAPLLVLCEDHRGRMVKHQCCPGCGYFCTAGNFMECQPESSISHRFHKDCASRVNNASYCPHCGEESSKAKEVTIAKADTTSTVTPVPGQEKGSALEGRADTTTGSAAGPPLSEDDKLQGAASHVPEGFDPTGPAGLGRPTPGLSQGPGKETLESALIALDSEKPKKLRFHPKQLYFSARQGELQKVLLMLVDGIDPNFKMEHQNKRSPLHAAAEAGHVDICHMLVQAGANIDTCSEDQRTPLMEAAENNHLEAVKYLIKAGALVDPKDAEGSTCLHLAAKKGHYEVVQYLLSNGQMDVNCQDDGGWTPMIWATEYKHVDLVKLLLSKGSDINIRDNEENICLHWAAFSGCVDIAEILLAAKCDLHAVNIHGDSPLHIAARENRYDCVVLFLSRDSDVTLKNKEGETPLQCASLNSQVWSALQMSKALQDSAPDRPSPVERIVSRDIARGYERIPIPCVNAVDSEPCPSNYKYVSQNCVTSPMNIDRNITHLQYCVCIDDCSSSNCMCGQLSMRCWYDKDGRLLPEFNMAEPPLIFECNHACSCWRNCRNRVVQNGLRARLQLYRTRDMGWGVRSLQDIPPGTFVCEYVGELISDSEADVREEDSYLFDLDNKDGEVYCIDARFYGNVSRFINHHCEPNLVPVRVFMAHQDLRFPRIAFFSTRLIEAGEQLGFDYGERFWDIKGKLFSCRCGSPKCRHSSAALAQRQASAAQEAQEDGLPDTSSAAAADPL

SMILES | IC50 (human EHMT2 913-1193) | IC50 (EHMT1)
COc1ccc(Nc2nccc(NC(C)(C)C)n2)cc1OCCCN1CCCC1 [Compound 6, N^4-(tert-butyl)-N^2-(4-methoxy-3-(3-(pyrrolidin-1-yl)propoxy)phenyl)pyrimidine-2,4-diamine] | < 0.1 µM | 0.1 to 1 µM
COc1ccc(Nc2ccnc(NCC3CCNCC3)n2)cc1OCCCN1CCCC1 [Compound 7, 4-N-[4-methoxy-3-[3-(pyrrolidin-1-yl)propoxy]phenyl]-2-N-(piperidin-4-ylmethyl)pyrimidine-2,4-diamine hydrochloride] | < 0.1 µM | < 0.1 µM
CC(=O)N1CCC(CNc2ccnc(Nc3ccc(Cl)c(OCCCN4CCCC4)c3)n2)CC1 [Compound 8, 1-(4-(((2-((4-chloro-3-(3-(pyrrolidin-1-yl)propoxy)phenyl)amino)pyrimidin-4-yl)amino)methyl)piperidin-1-yl)ethan-1-one] | 0.1 to 1 µM | 0.1 to 1 µM
CNC(=O)c1cnc(Nc2ccc(OC)c(OCCCN3CCCC3)c2)nc1 [Compound 9, 2-((4-methoxy-3-(3-(pyrrolidin-1-yl)propoxy)phenyl)amino)-N-methylpyrimidine-5-carboxamide] | 1 to 10 µM | > 10 µM
COc1ccc(Nc2cc(NCC3CCNCC3)ccn2)cc1OCCCN1CCCC1 [Compound 10, N^2-(4-methoxy-3-(3-(pyrrolidin-1-yl)propoxy)phenyl)-N^4-(piperidin-4-ylmethyl)pyridine-2,4-diamine] | < 0.1 µM | 0.1 to 1 µM
COc1cnc(Nc2ccnc(CNC3CCOCC3)c2)cc1OCCCN1CCCC1 [Compound 12, 5-methoxy-4-(3-(pyrrolidin-1-yl)propoxy)-N-(2-(((tetrahydro-2H-pyran-4-yl)amino)methyl)pyridin-4-yl)pyridin-2-amine] | 1 to 10 µM | 1 to 10 µM
COc1ccc(Nc2ccnc(N(C)CC3CCN(C(C)=O)CC3)c2)cc1OCCCN1CCCC1 [Compound 13, 1-(4-(((4-((4-methoxy-3-(3-(pyrrolidin-1-yl)propoxy)phenyl)amino)pyridin-2-yl)(methyl)amino)methyl)piperidin-1-yl)ethan-1-one] | > 10 µM | > 10 µM
COc1ccc(Nc2nccc(OCC3CCN(C(C)=O)CC3)n2)cc1OCCCN1CCCC1 [Compound 14, 1-(4-(((2-((4-methoxy-3-(3-(pyrrolidin-1-yl)propoxy)phenyl)amino)pyrimidin-4-yl)oxy)methyl)piperidin-1-yl)ethan-1-one] | > 10 µM | > 10 µM
COc1ccc(Nc2nccc(NCC3CCNCC3)n2)cc1OCC(O)CN1CCCC1 (stereo not drawn) [Compound 15, 1-(2-methoxy-5-((4-((piperidin-4-ylmethyl)amino)pyrimidin-2-yl)amino)phenoxy)-3-(pyrrolidin-1-yl)propan-2-ol] | < 0.1 µM | < 0.1 µM
COc1ccc(Nc2nc(NCC3CCNCC3)cc(N3CCCC3)n2)cc1OCCCN1CCCC1 [Compound 103] | 0.1 to 1 µM | 0.1 to 1 µM
COc1ccc(Nc2cc(CNC3CCNCC3)n(C)n2)cc1OCCCN1CCCC1 [Compound 126] | > 10 µM | > 10 µM
COc1ccc(Nc2cc(CNC3CCOCC3)n(C)n2)cc1OCCCN1CCCC1 [Compound 127] | > 10 µM | > 10 µM
COc1ccc(Nc2nccc(N3CCc4[nH]ncc4C3)n2)cc1OCCCN1CCCC1 [Compound 128] | > 10 µM | > 10 µM
COc1ccc(Nc2nccc(-c3c(C)n[nH]c3C)n2)cc1OCCCN1CCCC1 [Compound 129] | > 10 µM | > 10 µM
COc1ccc(Nc2nccc(-c3c(C)noc3C)n2)cc1OCCCN1CCCC1 [Compound 130] | > 10 µM | > 10 µM
COc1ccc(Nc2nccc(-c3c[nH]nc3C)n2)cc1OCCCN1CCCC1 [Compound 131] | > 10 µM | > 10 µM
COc1ccc(Nc2nccc(N3CCN(C)C(=O)C3)n2)cc1OCCCN1CCCC1 [Compound 132] | > 10 µM | > 10 µM
COc1ccc(Nc2nccc(N3CCCNC(=O)C3)n2)cc1OCCCN1CCCC1 [Compound 133] | 1 to 10 µM | > 10 µM
